Reference: PubChem BioAssay (NCI)
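The compound was tested at five concentrations on cells cultured in 96-well plates, with a 48-hour exposure period. TGI is the concentration that stops growth completely.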

Assays:
Experiment in all cases: growth of human tumour cells (NCI), 48 h
[1] = test system: A498 renal
[2] = test system: TK-10 renal
[3] = test system: SF-295 CNS
[4] = test system: UACC-257 melanoma
[5] = test system: CCRF-CEM leukemia
[6] = test system: HT29 colon
[7] = test system: HL-60(TB) leukemia
[8] = test system: CAKI-1 renal
[9] = test system: SN12C renal
[10] = test system: SK-OV-3 ovarian
[11] = test system: MDA-N

Row | SMILES | TGI [1] [µM] | TGI [2] [µM] | TGI [3] [µM] | TGI [4] [µM] | TGI [5] [µM] | TGI [6] [µM] | TGI [7] [µM] | TGI [8] [µM] | TGI [9] [µM] | TGI [10] [µM] | TGI [11] [µM]
1 | COc1ccc(/C=N/N=C(N)N)c(C(=O)O)c1OC | > 100 | > 100 | > 100 | > 100 | > 100 | > 100 | > 100 | > 100 | > 100 | > 100 | 
2 | CN(C)c1ccc(C(=C2C=CC(=[N+](C)C)C=C2)c2c(O)c(S(=O)(=O)[O-])cc3cc(S(=O)(=O)O)ccc23)cc1 | > 100 | > 100 | > 100 | > 100 |  | > 100 |  | > 100 | > 100 | > 100 | > 100
3 | Brc1ccc2c(c1)[C@H]1CCc3c([nH]c4ccccc34)[C@H]1N2 |  | 23.3 | 24.5 | 25.6 | 21.6 | 27.1 |  | 21.8 | 27.2 | 27.5 | 28.7
4 | CCCCc1ccc(Nc2nc(N)c3[nH]cnc3n2)cc1 | 24.2 | 43.2 | 68.8 | 47.4 | 52.4 | 28.3 | 42.5 | 37.7 | 31.1 | 52.7 | 32.6
5 | CC(C)=CCC[C@@H](C)c1c(O)c(O)c(C)c2nc3ccccc3nc12 | 7.97 | 17 | 4.93 | 12.7 | 0.8 | 17.5 | 2.98 | 9.01 | 6.38 | 21.7 | 15.9
6 | O=c1[nH]/c(=C/c2cccs2)c(=O)[nH]/c1=C/c1ccc(OCc2ccccc2)cn1 | 1.15 | 27.4 | 0.119 | > 75 | 4.34 | > 100 | 0.244 | 8.35 | > 100 | 16.1 | 0.0766
7 | O=C1NC(N2CCOCC2)=N/C1=C\c1ccccc1 |  | > 100 | > 100 | > 100 | > 100 | > 100 | > 100 | > 100 | > 100 | > 100 | > 100
8 | CC1CN=C(c2ccc3c(c2)Cc2cc(C4=NCC(C)N4)ccc2-3)N1 (stereo unspecified) | > 100 | > 100 | > 100 | > 100 | > 100 | > 100 |  | > 100 | > 100 | > 100 | > 100
9 | CO/C=C(/C(=O)OC)c1ccccc1[C@H]1C[C@@H]1c1ccc(OC)cc1 | > 100 | > 100 | 46.3 | 72.8 | > 100 | 38.7 | 62.4 | 57.4 | > 100 | 60.7 | 56.7
10 | O=C1CCCc2ccc3c(c21)CC1(Cc2cc4c(cc2C1)CCCC4)C3 | > 100 | 46.2 | 75.7 | 47.8 | 16 | 50.9 | 26.3 |  | 54.2 | > 100 | 
